Measurements published in patent US11992479B2, “R-fadrozole for use in the treatment of aldostonerism” (priority 2018, dated 2024).
Like-named read-outs stand apart in the source and are kept apart here. Marks after values point to notes of the source that are not given here.

Assays:
plasma aldosterone = details: for Plasma levels of Aldosterone: mean ± SEM
From the text: (§1) There were 6 subjects treated with each dose and twelve subjects treated with placebo (two placebo-treated-subjects included with each dose group).
(§2) The diet consisted of 70-80 mEq/day of sodium and 80-90 mEq/day of potassium. Blood samples were obtained daily at the time points indicated in the accompanying Tables for measurements of aldosterone, 11β-deoxycorticosterone (DOC), and potassium (K^+). All of the blood samples were obtained while the subjects were seated in a resting state.
Statistical evaluations of the hormonal responses was performed using the two-tailed, paired Student's t-test to evaluate within treatment group data, and data from between treatment groups utilized the two-tailed t-test equal variance model.

[1] = up until 225° C., TGA/DSC
Method: The thermogravimetric analysis and differential scanning calorimetry (TGA/DSC) studies were performed using a Mettler Toledo TGA/DSC1 STARe System with a 34-position auto sampler. The samples were made using AI crucibles (40 μL; pierced). Typically 5-10 mg of sample was loaded into a pre-weighed Al crucible and was kept at 30° C. for 5 minutes, after which it was heated at 10° C./min from 30° C. to 350° C. A nitrogen purge of 40 ml/min was maintained over the sample. […] No corrections were applied to the thermogram.

[2] = Method: The Dynamic Vapour Sorption (DVS) studies were performed using a Surface Measurement Systems Ltd. DVS-1 No Video. The sample was loaded into a balance pan, typically 20-30 mg, and equilibrated at 0% RH. […] After completion of the sorption cycle, the sample was dried using the same method. The software used for data collection was DVSWin v3.01 No Video. Data analysis was performed using DVS Standard Analysis Suite v6.3.0 (Standard).
cortisol = assay: ACTH (Synacten) stress test: cortisol response; details: 16 mg/day
Method: For a stress test, on day 1 of the single dose phase of the study or on day 7 of the multiple dose phase of the study an ACTH (Synacten) stress test was initiated as follows. […] Blood samples were obtained 60 min post-Synacten. The samples were analyzed for aldosterone and 11β-deoxycorticosterone (DOC) by the Clinical Chemistry Unit at the University Hospital Inselspital Bern, Bern Switzerland. Aldosterone was measured using the Liaison® chemiluminescent immunoassay kit supplied by DiaSorin S.p.A. Italy. Because this assay system uses specific monoclonal antibodies for aldosterone there are no cross reactions with other major potential reactants in the serum samples. The assays were performed according to the instructions provided by the manufacturer.
Serum cortisol, estradiol, testosterone, and follicle stimulating hormone (FSH) were measured by Covance's diagnostic unit, Harrogate, UK with the ADVIA Centaur®CP system (Siemens AG). […] The ADVIA Centaur enhanced estradiol assay is a fully automated, monoclonal competitive, chemiluminescent immunoassay, and has a sensitivity of 10 pg/ml. […] The ADVIA Centaur®CP testosterone assay is a competitive, solid phase immunoassay using direct chemiluminescent technology. All of the above assays were conducted as described by the manufacture.

estradiol = details: for Serum Estradiol: mean ± SEM
Method: (§3) All of the above assays used for measuring serum estradiol, testosterone, and FSH levels were conducted as described by the manufacture.

[3] = tested on: follicle stimulating hormone (FSH); details: for Serum FSH: mean ± SEM
Method: as §3

testosterone = details: for Serum Testosteron: mean ± SEM
Method: as §3

[4] = tested on: ACTH-stimulated aldosterone; details: for Plasma aldosterone, Difference Post-ACTH vs Pre-ACTH: Day 1
potassium = details: mean ± SEM
From the text: as §1, §2

[5] = tested on: 11β-deoxycorticosterone (DOC); details: once daily DP13, 4-16 mg
From the text: as §2
DOC was quantified by an LC-MS/MS methodology. In preparation the steroids were extracted using the Absolute/DQStereo17 Kit from Biocrates Life Sciences AG, Innsbruck, Austria. The steroids were extracted and subjected to LC-MS/MS analysis according to the manufacturer's instructions. The triple quadrupole mass spectrometer (Waters 1-Class 2D UPLC Xevo TQ-S was calibrated using the standards provided in the kit. The assays were performed as provided by the manufacturers.

[6] = 4 mg once daily, Day 2 (08:00 h)
[7] = 8 mg once daily, Day 2 (08:00 h)
[8] = 16 mg once daily, Day 2 (08:00 h)
[9] = 4 mg once daily, Day 1 (08:00 h), pretreatment
[10] = 4 mg once daily, Day 9 (08:00 h)
[11] = 8 mg once daily, Day 1 (08:00 h), pretreatment
[12] = 8 mg once daily, Day 9 (08:00 h)
[13] = 16 mg once daily, Day 1 (08:00 h), pretreatment
[14] = 16 mg once daily, Day 9 (08:00 h)
[15] = once-daily oral dosing with 4, 8, or 16 mg

## N#Cc1ccc([C@H]2CCCc3cncn32)cc1.O=P(O)(O)O [DP13, (R)-(+)-5-(p-cyanophenyl)-5,6,7,8-tetrahydroimidazolium[1,5-a]pyridine dihydrogen phosphate]
Plasma aldosterone; 1 mg dose
  suppression of plasma aldosterone compared to placebo: 52%
Plasma aldosterone; 1 mg dose, 18 and 24 hours after the last once daily dose on day 8 (so in the source)
  suppression of plasma aldosterone compared to pretreatment values: 18%
Plasma aldosterone; 2 mg dose
  suppression of plasma aldosterone compared to placebo: 61%
Plasma aldosterone; 2 mg dose, 18 and 24 hours after the last once daily dose on day 8 (so in the source)
  suppression of plasma aldosterone compared to pretreatment values: 39%
Plasma aldosterone; 4 mg once daily oral, 8 days, Day 1, 08:00 h, pretreatment
  Plasma levels of Aldosterone: 306.2 ± 59.0 pmol/L
Plasma aldosterone; [6]
  Plasma levels of Aldosterone: 198.4 ± 43.4^b,d pmol/L
Plasma aldosterone; 4 mg once daily, Day 8, 14:00 h
  Plasma levels of Aldosterone: 166.2 ± 17.9^c,d pmol/L
Plasma aldosterone; 4 mg once daily, Day 9, 08:00 h (24 h after last dose)
  Plasma levels of Aldosterone: 334.9 ± 53.3 pmol/L
Plasma aldosterone; 4 mg/day oral, day 9, twenty-four hours after the last of 8 daily doses
  plasma aldosterone versus placebo control: failed to lower the plasma aldosterone level below the level of the placebo control
Plasma aldosterone; 8 mg once daily oral, 8 days, Day 1, 08:00 h, pretreatment
  Plasma levels of Aldosterone: 271.4 ± 31.5 pmol/L
Plasma aldosterone; [7]
  Plasma levels of Aldosterone: 118.0 ± 12.4^b,d pmol/L
Plasma aldosterone; 8 mg once daily, Day 8, 14:00 h
  Plasma levels of Aldosterone: 91.9 ± 7.5^c,d pmol/L
Plasma aldosterone; 8 mg once daily, Day 9, 08:00 h (24 h after last dose)
  Plasma levels of Aldosterone: 186.4 ± 22.1^d pmol/L
Plasma aldosterone; 8 mg once daily, twenty-four hours after the last dose on day 8
  suppression of plasma aldosterone compared to pretreatment values: 32%
Plasma aldosterone; 16 mg once daily oral, 8 days, Day 1, 08:00 h, pretreatment
  Plasma levels of Aldosterone: 314.6 ± 48.6 pmol/L
Plasma aldosterone; [8]
  Plasma levels of Aldosterone: 108.4 ± 13.4^b,d pmol/L
Plasma aldosterone; 16 mg once daily, Day 8, 14:00 h
  Plasma levels of Aldosterone: 100.9 ± 8.3^c,d pmol/L
Plasma aldosterone; 16 mg once daily, Day 9, 08:00 h (24 h after last dose)
  Plasma levels of Aldosterone: 156.0 ± 26.8^a,d pmol/L
Plasma aldosterone; 16 mg once daily, twenty-four hours after the last dose on day 8
  suppression of plasma aldosterone compared to pretreatment values: 50%
Plasma aldosterone; single dose 1 mg, Day 1, 08:00 h, pretreatment
  Plasma levels of Aldosterone: 171 ± 8.1 pmol/L
Plasma aldosterone; single dose 1 mg, Day 1, 14:00 h
  Plasma levels of Aldosterone: 118 ± 8.4^e pmol/L
Plasma aldosterone; single dose 1 mg, Day 1, 20:00 h
  Plasma levels of Aldosterone: 104 ± 4.9^e pmol/L
Plasma aldosterone; single dose 1 mg, Day 2, 08:00 h
  Plasma levels of Aldosterone: 141 ± 14^e pmol/L
Plasma aldosterone; single dose 2 mg, Day 1, 08:00 h, pretreatment
  Plasma levels of Aldosterone: 203 ± 13.8 pmol/L
Plasma aldosterone; single dose 2 mg, Day 1, 14:00 h
  Plasma levels of Aldosterone: 129 ± 8.8^e pmol/L
Plasma aldosterone; single dose 2 mg, Day 1, 20:00 h
  Plasma levels of Aldosterone: 114 ± 9.2^e pmol/L
Plasma aldosterone; single dose 2 mg, Day 2, 08:00 h
  Plasma levels of Aldosterone: 124 ± 9^e pmol/L
[1]
  Mass loss upon heating: 1.4%
[2]
  crystalline form upon DVS treatment: crystalline form does not change upon DVS treatment
cortisol
  cortisol before ACTH, the one subject below guideline: 324 nmol/L
cortisol; guideline 552 nmol/L
  cortisol in response to ACTH, the one subject below guideline: 504 nmol/L
estradiol; [9]
  Serum Estradiol: 98 ± 10.2 pM/L
estradiol; [6]
  Serum Estradiol: 92 ± 9.8 pM/L
estradiol; [10]
  Serum Estradiol: 127 ± 8.3^a,b pM/L
estradiol; [11]
  Serum Estradiol: 90.0 ± 9.5 pM/L
estradiol; [7]
  Serum Estradiol: 90.0 ± 12.1 pM/L
estradiol; [12]
  Serum Estradiol: 113 ± 8.3^a pM/L
estradiol; [13]
  Serum Estradiol: 97.4 ± 15.3 pM/L
estradiol; [8]
  Serum Estradiol: 97.0 ± 9.4 pM/L
estradiol; [14]
  Serum Estradiol: 114.0 ± 8.5 pM/L
estradiol; 4 and 8 mg doses after 8 days of treatment
  change of estradiol: slightly increased
estradiol; [15]
  effect on estradiol: neither inhibited estradiol
[3]; [9]
  Serum FSH: 2.7 ± 0.22 IU/L
[3]; [6]
  Serum FSH: 2.7 ± 0.27 IU/L
[3]; [10]
  Serum FSH: 2.7 ± 0.27 IU/L
[3]; [11]
  Serum FSH: 4.3 ± 0.94 IU/L
[3]; [7]
  Serum FSH: 4.1 ± 0.79 IU/L
[3]; [12]
  Serum FSH: 4.1 ± 0.91 IU/L
[3]; [13]
  Serum FSH: 2.6 ± 0.43 IU/L
[3]; [8]
  Serum FSH: 2.5 ± 0.43 IU/L
[3]; [14]
  Serum FSH: 2.5 ± 0.43 IU/L
[3]; [15]
  effect on circulating FSH: nor increased circulating testosterone or FSH
testosterone; [9]
  Serum Testosteron: 17 ± 1.9 nM/L
testosterone; [6]
  Serum Testosteron: 18 ± 1.9 nM/L
testosterone; [10]
  Serum Testosteron: 15 ± 1.5^b nM/L
testosterone; [11]
  Serum Testosteron: 18 ± 1.7 nM/L
testosterone; [7]
  Serum Testosteron: 21 ± 6.2^a nM/L
testosterone; [12]
  Serum Testosteron: 16 ± 1.4^a nM/L
testosterone; [13]
  Serum Testosteron: 17 ± 1.9 nM/L
testosterone; [8]
  Serum Testosteron: 20 ± 2.0^a nM/L
testosterone; [14]
  Serum Testosteron: 17 ± 1.7 nM/L
testosterone; [15]
  effect on circulating testosterone: nor increased circulating testosterone or FSH
[4]; 4 mg once daily, Day 7, 09:30 h ([…] post-dose), mean ± SEM
  Plasma levels of Aldosterone, Pre-ACTH: 203.5 ± 26.7 pmol/L
[4]; 4 mg once daily, Day 7, 11:00 h, ACTH i.v. at 10:00 h, mean ± SEM
  Plasma levels of Aldosterone, Post-ACTH: 181.1 ± 14.3^b pmol/L
[4]; 8 mg once daily, Day 7, 09:30 h, mean ± SEM
  Plasma levels of Aldosterone, Pre-ACTH: 121.0 ± 14.0 pmol/L
[4]; 8 mg once daily, Day 7, 11:00 h, mean ± SEM
  Plasma levels of Aldosterone, Post-ACTH: 115.5 ± 10.6^b pmol/L
[4]; 16 mg once daily, Day 7, 09:30 h, mean ± SEM
  Plasma levels of Aldosterone, Pre-ACTH: 102.2 ± 13.4 pmol/L
[4]; 16 mg once daily, Day 7, 11:00 h, mean ± SEM
  Plasma levels of Aldosterone, Post-ACTH: 103.4 ± 11.1^b pmol/L
[4]; 4, 8, or 16 mg once daily oral, day 7
  effect on aldosterone increase elicited by ACTH: able to prevent the 2- to 3-fold increases in aldosterone elicited by ACTH
[4]; single dose 1 mg
  Plasma aldosterone, Difference Post-ACTH vs Pre-ACTH: (−6) pmol/L
[4]; single dose 1 mg, Day 1, 09:30 h, mean ± SD, N = six
  Plasma levels of Aldosterone, Pre-ACTH: 99 ± 13 pmol/L
[4]; single dose 1 mg, Day 1, 11:00 h, mean ± SD, N = six
  Plasma levels of Aldosterone, Post-ACTH: 94 ± 6^a pmol/L
[4]; single dose 2 mg
  Plasma aldosterone, Difference Post-ACTH vs Pre-ACTH: (−12) pmol/L
[4]; single dose 2 mg, Day 1, 09:30 h, mean ± SD, N = six
  Plasma levels of Aldosterone, Pre-ACTH: 132 ± 22 pmol/L
[4]; single dose 2 mg, Day 1, 11:00 h, mean ± SD, N = six
  Plasma levels of Aldosterone, Post-ACTH: 120 ± 20^a pmol/L
potassium; [9]
  Blood levels of potassium: 4.4 ± 0.6 mmol/L
potassium; 4 mg once daily, Day 8, 08:00 h pre-dose
  Blood levels of potassium: 4.8 ± 0.8^a,b mmol/L
potassium; [11]
  Blood levels of potassium: 4.3 ± 0.07 mmol/L
potassium; 8 mg once daily, Day 8, 08:00 h pre-dose
  Blood levels of potassium: 4.6 ± 0.09^a,b mmol/L
potassium; [13]
  Blood levels of potassium: 4.4 ± 0.11 mmol/L
potassium; 16 mg once daily, Day 8, 08:00 h pre-dose
  Blood levels of potassium: 4.7 ± 0.06^a,b mmol/L
[5]
  highest individual DOC value: 1.92 ng/mL
  highest mean increase in DOC: 0.52 ng/mL
